Where two headings read alike, the source gives them in different places.
Key:
[1] = rcm bond, Zhan's catalyst, DCE
[2] = molecular target: HCV NS3/4A protease genotype 1b (Hepatitis C virus genotype 1b, UniProt P26663); assay: HCV NS3/4A protease time-resolved fluorescence (TRF) assay, Ki against genotype 1b; type: biochemical
Summary of the method: (§1)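 Enzyme 0.2 nM 1b / 0.4 nM A156T / 0.025 nM 3a; 30 min preinc. w/ cpd; 25 nM TRF peptide; 2.5 h RT; ex 340/em 615 time-delayed; 4-param IC50 → Ki = IC50/(1+[S]/KM).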

HCV genotype 1b replicon = assay: HCV replicon assay, genotype 1b replicon EC50; type: cell-based, Hepatitis C virus; details: Hepatitis C virus, read-out: EC50 [gt-1b]
Summary of the method: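 Cells harbouring a stable replicon are grown under G418 selection, then plated with test compound in G418-free medium for 24-48 hours. After washing and lysis, RNA or luciferase signal is measured and expressed as percent of DMSO control to give EC50.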

[3] = molecular target: HCV NS3/4A protease A156T mutant (Hepatitis C virus genotype 1b, UniProt P26663, A1182T); assay: HCV NS3/4A protease time-resolved fluorescence (TRF) assay, Ki against A156T mutant; type: biochemical; details: NS3/4A protease TRF assay, A156T mutant enzyme 0.4 nM, read-out: IC50 [gt-1b A156T]
Summary of the method: as §1

[4] = molecular target: HCV NS3/4A protease genotype 3a (Hepatitis C virus genotype 3a, UniProt Q81495); assay: HCV NS3/4A protease time-resolved fluorescence (TRF) assay, Ki against genotype 3a; type: biochemical
Summary of the method: as §1

[5] = IC50 [gt-1b], NS3/4A protease TRF assay, genotype 1b enzyme 0.2 nM

Compound `CC(C)(C)OC(=O)N[C@H]1CCCCC/C=C\[C@@H]2C[C@@]2(C(=O)NS(=O)(=O)C2(C)CC2)NC(=O)[C@@H]2C[C@]3(CCc4c(c(CO)nc5ccccc45)O3)CN2C1=O` has a ring closure, yield of all isomers ([1]; from C=CCCCCC[C@H](NC(=O)OC(C)(C)C)C(=O)N1C[C@@]2(CCc3c(c(CO)nc4ccccc34)O2)C[C@H]1C(=O)N[C@]1(C(=O)NS(=O)(=O)C2(C)CC2)C[C@H]1C=C, 2.0 mM, 65.0 °C, 2.0 h) of 45.1%.

With `CC(C)(C)OC(=O)N[C@H]1CCCCCC=C[C@@H]2C[C@@]2(C(=O)NS(=O)(=O)C2(C)CC2)NC(=O)[C@@H]2C[C@]3(CCc4c(c(C(F)(F)F)nc5ccccc45)O3)CN2C1=O` the ring closure, yield of all isomers ([1]; from C=CCCCCC[C@H](NC(=O)OC(C)(C)C)C(=O)N1C[C@@]2(CCc3c(c(C(F)(F)F)nc4ccccc34)O2)C[C@H]1C(=O)N[C@]1(C(=O)NS(=O)(=O)C2(C)CC2)C[C@H]1C=C, 2.94 mM, 75.0 °C) was 73.4%.

With `CCOC(=O)[C@@]12C[C@H]1C=CCCCCC[C@H](NC(=O)OC(C)(C)C)C(=O)N1C[C@@]3(CCc4c(c(C)nc5c(C(F)(F)F)cccc45)O3)C[C@H]1C(=O)N2` the ring closure, yield of all isomers ([1]; from C=CCCCCC[C@H](NC(=O)OC(C)(C)C)C(=O)N1C[C@@]2(CCc3c(c(C)nc4c(C(F)(F)F)cccc34)O2)C[C@H]1C(=O)N[C@]1(C(=O)OCC)C[C@H]1C=C, 3.36 mM, 65.0 °C, 3.0 h) was 50%.

In the case of `CCOC(=O)[C@@]12C[C@H]1C=CCCCCC[C@H](NC(=O)OC(C)(C)C)C(=O)N1C[C@@]3(CCc4c(c(C)nc5c(F)cccc45)O3)C[C@H]1C(=O)N2`, the ring closure, yield of all isomers ([1]; from C=CCCCCC[C@H](NC(=O)OC(C)(C)C)C(=O)N1C[C@@]2(CCc3c(c(C)nc4c(F)cccc34)O2)C[C@H]1C(=O)N[C@]1(C(=O)OCC)C[C@H]1C=C, 4.53 mM, 65.0 °C, 1.0 h) is reported as 48%.

`CCOC(=O)[C@@]12C[C@H]1C=CCCCCC[C@H](NC(=O)OC(C)(C)C)C(=O)N1C[C@@]3(CCc4c(c(C)nc5ccc(C)cc45)O3)C[C@H]1C(=O)N2` gave a ring closure, yield of all isomers ([1]; from C=CCCCCC[C@H](NC(=O)OC(C)(C)C)C(=O)N1C[C@@]2(CCc3c(c(C)nc4ccc(C)cc34)O2)C[C@H]1C(=O)N[C@]1(C(=O)OCC)C[C@H]1C=C, 3.55 mM, 65.0 °C, 3.0 h) of 68%.

Work on `CCOC(=O)[C@@]12C[C@H]1C=CCCCCC[C@H](NC(=O)OC(C)(C)C)C(=O)N1C[C@@]3(CCc4c(c(C)nc5ccc(F)cc45)O3)C[C@H]1C(=O)N2` yielded a ring closure, yield of all isomers ([1]; from C=CCCCCC[C@H](NC(=O)OC(C)(C)C)C(=O)N1C[C@@]2(CCc3c(c(C)nc4ccc(F)cc34)O2)C[C@H]1C(=O)N[C@]1(C(=O)OCC)C[C@H]1C=C, 2.83 mM, 75.0 °C, 4.0 h) of 47%.

`CCOC(=O)[C@@]12C[C@H]1C=CCCCCC[C@H](NC(=O)OC(C)(C)C)C(=O)N1C[C@@]3(CCc4c(c(C5CCC5)nc5ccc(OC)cc45)O3)C[C@H]1C(=O)N2` showed a ring closure, yield of all isomers ([1]; from C=CCCCCC[C@H](NC(=O)OC(C)(C)C)C(=O)N1C[C@@]2(CCc3c(c(C4CCC4)nc4ccc(OC)cc34)O2)C[C@H]1C(=O)N[C@]1(C(=O)OCC)C[C@H]1C=C, 4.5 mM, 70.0 °C, 2.2 h) of 72%.

In the case of `COc1ccc2nc(CO)c3c(c2c1Cl)CC[C@]1(C[C@H]2C(=O)N[C@]4(C(=O)NS(=O)(=O)C5(C)CC5)C[C@H]4C=CCCCCC[C@H](NC(=O)OC(C)(C)C)C(=O)N2C1)O3`, the ring closure, yield of all isomers ([1]; from C=CCCCCC[C@H](NC(=O)OC(C)(C)C)C(=O)N1C[C@@]2(CCc3c(c(CO)nc4ccc(OC)c(Cl)c34)O2)C[C@H]1C(=O)N[C@]1(C(=O)NS(=O)(=O)C2(C)CC2)C[C@H]1C=C, 1.91 mM, 65.0 °C, 3.0 h) is reported as 25.9%.

`Cc1nc2ccc(Cl)cc2c2c1O[C@]1(CC2)C[C@H]2C(=O)N[C@]3(C(=O)NS(=O)(=O)C4(C)CC4)C[C@H]3C=CCCCCC[C@H](NC(=O)OC(C)(C)C)C(=O)N2C1` showed a ring closure, yield of all isomers ([1]; from C=CCCCCC[C@H](NC(=O)OC(C)(C)C)C(=O)N1C[C@@]2(CCc3c(c(C)nc4ccc(Cl)cc34)O2)C[C@H]1C(=O)N[C@]1(C(=O)NS(=O)(=O)C2(C)CC2)C[C@H]1C=C, 2.4 mM, 75.0 °C, 0.5 h) of 71.6%.

For `Cc1nc2ccc(OC(F)(F)F)cc2c2c1O[C@]1(CC2)C[C@H]2C(=O)N[C@]3(C(=O)NS(=O)(=O)C4(C)CC4)C[C@H]3C=CCCCCC[C@H](NC(=O)OC(C)(C)C)C(=O)N2C1`, the ring closure, yield of all isomers ([1]; from C=CCCCCC[C@H](NC(=O)OC(C)(C)C)C(=O)N1C[C@@]2(CCc3c(c(C)nc4ccc(OC(F)(F)F)cc34)O2)C[C@H]1C(=O)N[C@]1(C(=O)NS(=O)(=O)C2(C)CC2)C[C@H]1C=C, 2.32 mM, 70.0 °C, 6.0 h) was 71%.

Work on `Cc1nc2ccccc2c2c1O[C@]1(CC2)C[C@H]2C(=O)N[C@]3(C(=O)NS(=O)(=O)C4(C)CC4)C[C@H]3C=CCCCCC[C@H](NC(=O)OC(C)(C)C)C(=O)N2C1` yielded a ring closure, yield of all isomers ([1]; from C=CCCCCC[C@H](NC(=O)OC(C)(C)C)C(=O)N1C[C@@]2(CCc3c(c(C)nc4ccccc34)O2)C[C@H]1C(=O)N[C@]1(C(=O)NS(=O)(=O)C2(C)CC2)C[C@H]1C=C, 2.5 mM, 65.0 °C, 7.0 h) of 62.9%.

For `COc1ccc2nc(C3CC3)c3c(c2c1)CC[C@]1(C[C@H]2C(=O)N[C@]4(C(=O)NS(=O)(=O)C5(C)CC5)C[C@H]4/C=C\CCCCC[C@H](NC(=O)OC(C)(C)C)C(=O)N2C1)O3` [Example 16, tert-Butyl (2R,6S,13aS,14aR,16aS,Z)-5′-cyclopropyl-9′-methoxy-14a-(1-methylcyclopropylsulfonylcarbamoyl)-5,16-dioxo-1′,2′,3,5,6,7,8,9,10,11,13a,14,14a,15,16, 16a-hexadecahydro-1H-spiro[cyclopropa[e]pyrrolo[1,2-a][1,4]diazacyclopentadecine-2,3′-pyrano[2,3-c]quinoline]-6-ylcarbamate], the IC50 ([2]; IC50 [gt-1b] (nM), NS3/4A genotype 1b, enzyme 0.2 nM) was 0.009 nM, the ring closure, yield of all isomers ([1]; from C=CCCCCC[C@H](NC(=O)OC(C)(C)C)C(=O)N1C[C@@]2(CCc3c(c(C4CC4)nc4ccc(OC)cc34)O2)C[C@H]1C(=O)N[C@]1(C(=O)NS(=O)(=O)C2(C)CC2)C[C@H]1C=C, 2.48 mM, 75.0 °C, 4.0 h) was 82.6% and the EC50 (HCV genotype 1b replicon; genotype 1b replicon) was 0.69 nM.

`CC(C)COC(=O)N[C@H]1CCCCC/C=C\[C@@H]2C[C@@]2(C(=O)NS(=O)(=O)C2(C)CC2)NC(=O)[C@@H]2C[C@]3(CCc4c(c(C(F)(F)F)nc5ccc(OCCCN6CCOCC6)cc45)O3)CN2C1=O` [Example 511, 2-methylpropyl [(2R,6S,12Z,13aS,14aR,16aS)-14a-{[(1-methylcyclopropyl)sulfonyl]carbamoyl}-9′-[3-(morpholin-4-yl)propoxy]-5,16-dioxo-5′-(trifluoromethyl)-1,1′,2′,5,6,7,8,9,10,11,13a,14,14a,15,16,16a-hexadecahydrospiro[cyclopropa[e]pyrrolo[1,2-a][1,4]diazacyclopentadecine-2,3′-pyrano[2,3-c]quinolin]-6-yl]carbamate] gave an IC50 [2, 5] of 0.008 nM, an IC50 [3] of 0.235 nM and an IC50 [4] of 0.258 nM. The EC50 (HCV genotype 1b replicon; HCV replicon, genotype 1b) was 0.782 nM.

`CCc1nc2ccc(OCCCN3CCOCC3)cc2c2c1O[C@]1(CC2)C[C@H]2C(=O)N[C@]3(C(=O)NS(=O)(=O)C4(C)CC4)C[C@H]3/C=C\CCCCC[C@H](NC(=O)OC(C)(C)C)C(=O)N2C1` [Example 514, tert-butyl {(2R,6S,12Z,13aS,14aR,16aS)-5′-ethyl-14a-{[(1-methylcyclopropyl)sulfonyl]carbamoyl}-9′-[3-(morpholin-4-yl)propoxy]-5,16-dioxo-1,1′,2′,5,6,7,8,9,10,11,13a,14,14a,15,16,16a-hexadecahydrospiro[cyclopropa[e]pyrrolo[1,2-a][1,4]diazacyclopentadecine-2,3′-pyrano[2,3-c]quinolin]-6-yl}carbamate] gave an IC50 [2, 5] of 0.012 nM, an IC50 [3] of 0.0681 nM and an IC50 [4] of 0.224 nM. The EC50 (HCV genotype 1b replicon; HCV replicon, genotype 1b) was 0.668 nM.

Compound `CCc1nc2ccc(OCCN3CCOCC3)cc2c2c1O[C@]1(CC2)C[C@H]2C(=O)N[C@]3(C(=O)NS(=O)(=O)C4(C)CC4)C[C@H]3/C=C\CCCCC[C@H](NC(=O)OCC(C)C)C(=O)N2C1` [Example 515, 2-methylpropyl {(2R,6S,12Z,13aS,14aR,16aS)-5′-ethyl-14a-{[(1-methylcyclopropyl)sulfonyl]carbamoyl}-9′-[2-(morpholin-4-yl)ethoxy]-5,16-dioxo-1,1′,2′,5,6,7,8,9,10,11,13a,14,14a,15,16,16a-hexadecahydrospiro[cyclopropa[e]pyrrolo[1,2-a][1,4]diazacyclopentadecine-2,3′-pyrano[2,3-c]quinolin]-6-yl}carbamate] has an IC50 ([2]; IC50 [gt-1b], NS3/4A protease TRF assay, genotype 1b enzyme 0.2 nM, HCl salt) of 0.005 nM, an IC50 ([3]; HCl salt) of 0.0575 nM and an IC50 [4] of 0.292 nM. The EC50 (HCV genotype 1b replicon; HCV replicon, genotype 1b, HCl salt) was 0.503 nM.

Reference: patent publication US8987195B2 (priority 2012, dated 2015)
